These results are taken from patent US7297551B2, “Recombinant proteins and peptides for endotoxin biosensors, endotoxin removal, and anti-microbial and anti-endotoxin therapeutics” (priority 1998, dated 2007).

Test [1] addresses T1, SSCrFCES (LPS-binding domain of C. rotundicauda Factor C, rFCES amino acids 29-330, numbered as in SEQ ID NO: 4) (Carcinoscorpius rotundicauda, UniProt Q26422).
T1 construct: rFCES (amino acids 29-330); made in house; host or cells: Drosophila S2 cells
T1 sequence (Q26422 29-330): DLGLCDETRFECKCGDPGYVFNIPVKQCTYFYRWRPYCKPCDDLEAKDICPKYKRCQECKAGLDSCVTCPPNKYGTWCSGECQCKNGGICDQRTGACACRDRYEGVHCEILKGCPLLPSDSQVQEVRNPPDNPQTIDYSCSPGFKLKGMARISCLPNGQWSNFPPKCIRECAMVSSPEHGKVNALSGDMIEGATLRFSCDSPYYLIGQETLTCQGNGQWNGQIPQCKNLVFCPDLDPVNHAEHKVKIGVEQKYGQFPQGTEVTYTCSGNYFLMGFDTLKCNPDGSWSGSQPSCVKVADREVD
Briefly: Surface plasmon resonance binding to immobilized lipid A. As to conditions: 400 ng/100 ul SSCrFCES. The method, then:
Recognition of lipid A by the abovenamed secreted recombinant proteins and peptides was, performed with a BIAcore X™ biosensor instrument and an HPA sensor chip. Briefly, lipid A at 0.5 mg/ml in PBS was immobilized to a HPA sensor chip (Pharmacia) according to the manufacturer's specification. In all experiments, pyrogen-free PBS was used as the running buffer at a flow rate of 10 μl/min.
With purified SSCrFCES, 4 μg/ml was injected into the flow cell at a rate of 10 μl/min, and the binding response was measured as a function of time. Following injection of SSCrFCES, a solution of INDIA™ HisProbe™-HRP antibody, diluted in PBS to 400 μg/ml, was also injected to cause a shift in SPR in order to further confirm that SSCrFCES binds to lipid A. For regeneration, 100 mM of NaOH solution was injected for 5 minutes. Similar lipid A binding analysis was carried out with SSCrFCsushi-GFP fusion proteins.
A general note: Surface plasmon resonance follows binding to a sensor surface in real time, without labels.

Test [2] addresses T2, rFCSN (truncated C. rotundicauda Factor C, CrFC26SN, lacking the LPS-binding domain, from P. pastoris) (Carcinoscorpius rotundicauda, UniProt Q26423).
T2 construct: Pichia pastoris
T2 sequence (Q26423 1-1083): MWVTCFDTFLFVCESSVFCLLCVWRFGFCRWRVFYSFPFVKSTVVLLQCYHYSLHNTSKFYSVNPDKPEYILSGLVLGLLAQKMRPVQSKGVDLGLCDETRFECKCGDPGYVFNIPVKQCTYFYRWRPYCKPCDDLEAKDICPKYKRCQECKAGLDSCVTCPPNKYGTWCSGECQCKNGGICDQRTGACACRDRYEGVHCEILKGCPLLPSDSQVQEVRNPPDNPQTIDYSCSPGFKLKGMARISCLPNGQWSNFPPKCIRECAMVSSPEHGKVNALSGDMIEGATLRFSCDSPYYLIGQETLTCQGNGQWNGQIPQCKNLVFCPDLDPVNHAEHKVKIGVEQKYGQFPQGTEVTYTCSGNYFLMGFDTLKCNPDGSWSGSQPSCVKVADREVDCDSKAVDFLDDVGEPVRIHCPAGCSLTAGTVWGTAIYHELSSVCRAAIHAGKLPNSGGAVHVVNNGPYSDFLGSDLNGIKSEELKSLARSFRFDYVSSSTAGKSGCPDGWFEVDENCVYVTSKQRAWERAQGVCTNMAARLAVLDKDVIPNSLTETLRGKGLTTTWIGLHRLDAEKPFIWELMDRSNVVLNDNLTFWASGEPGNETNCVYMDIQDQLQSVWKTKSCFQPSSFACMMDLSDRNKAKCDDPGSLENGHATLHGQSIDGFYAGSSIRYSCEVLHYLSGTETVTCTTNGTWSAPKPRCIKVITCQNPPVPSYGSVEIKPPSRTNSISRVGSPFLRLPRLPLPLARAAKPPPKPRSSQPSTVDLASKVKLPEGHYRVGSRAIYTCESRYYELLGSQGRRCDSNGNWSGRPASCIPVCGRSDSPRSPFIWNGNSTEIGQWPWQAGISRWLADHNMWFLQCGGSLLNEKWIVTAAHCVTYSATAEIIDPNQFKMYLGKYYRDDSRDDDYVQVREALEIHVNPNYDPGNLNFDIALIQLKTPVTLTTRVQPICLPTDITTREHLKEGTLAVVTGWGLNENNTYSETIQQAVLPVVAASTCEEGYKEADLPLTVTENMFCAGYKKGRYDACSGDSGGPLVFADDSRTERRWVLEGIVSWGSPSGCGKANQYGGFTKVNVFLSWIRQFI
Briefly: Modified Western blot of LPS/lipid A. The method, then: LPS from E. coli 055:B5 (Sigma) was reconstituted to 2 μg/μl, and diphosphoryl lipid A from E. coli K12, D31m4 LPS (List Biologicals, Inc., USA) was made up to 1 μg/μl. The LPS-binding assay was based on modifications of earlier described protocols (45,61). Briefly, 10 μg aliquots of LPS/lipid A were electrophoresed on a denaturing 15% SDS-polyacrylamide gel and electroblotted onto Immobilon™ PVDF membrane. The membrane was cut into strips and each LPS/lipid A strip was subsequently incubated with 300 μg of proteins containing rFC. Detection of rFC binding to lipid A was accomplished by incubation with anti-Factor C antibody followed by alkaline phosphatase-conjugated secondary goat anti-rabbit antibody (Dako) and BCIP/NBT colorimetric substrate (Moss, Inc., USA).

The target of test [3] is BPI pep85-99 (15 mer). As to conditions: de Haas et al., 1998; ligand cell empty; read-out: Equilibrium constant; cited from earlier work.
In test [4] the target is NH-LBP (aa 1-197). As to conditions: Han et al., 1994; ligand cell empty; read-out: Equilibrium constant; cited from earlier work.

In the case of lipid A, the “saturation of lipid A” value in test [1] is 92%. The “binding to the 7-20 kDa lipid A bands” value in test [2] is “No binding”. The Kd in test [3] was 1760 nM; in test [4] it was 51 nM.
